Values joined by “and” are separate entries in the source; they are usually repeats but may differ in a detail not shown here. Equal entries are not always repeated. Toxic doses and inconclusive results are not listed. No stated cut-off is given here; in the data, active means T/C of 150% or more; inactive means T/C below 125%.
Test system: L1210 leukemia ip in BDF1 mice, survival T/C
Test: NCI In Vivo Anticancer Drug Screen. Data for tumor model L1210 Leukemia (intraperitoneal) in B6D2F1 (BDF1) mice
Details: endpoint: mean survival time, higher = longer survival
In short: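 Transplanted-tumor mice were given test agent; controls received vehicle only. Survival readings from the two groups were divided (treated over control).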

[1] = dose: 100.0 mg/kg/injection, schedule: Q01DX001 (ip), vehicle: saline
[2] = dose: 200.0 mg/kg/injection, schedule: Q01DX001 (ip), vehicle: saline
[3] = dose: 50.0 mg/kg/injection, schedule: Q01DX009 (ip), vehicle: saline with Tween-80
[4] = dose: 100.0 mg/kg/injection, schedule: Q04DX003 (ip), vehicle: saline with Tween-80
[5] = dose: 200.0 mg/kg/injection, schedule: Q04DX003 (ip), vehicle: saline with Tween-80
[6] = dose: 100.0 mg/kg/injection, schedule: Q01DX009 (ip), vehicle: saline with Tween-80
[7] = dose: 200.0 mg/kg/injection, schedule: Q01DX009 (ip), vehicle: saline with Tween-80
[8] = dose: 100.0 mg/kg/injection, schedule: Q01DX009 (ip), vehicle: Klucel (hydroxypropylcellulose) (HPC)
[9] = dose: 200.0 mg/kg/injection, schedule: Q01DX009 (ip), vehicle: Klucel (hydroxypropylcellulose) (HPC)
[10] = dose: 400.0 mg/kg/injection, schedule: Q01DX009 (ip), vehicle: Klucel (hydroxypropylcellulose) (HPC)
[11] = dose: 100.0 mg/kg/injection, schedule: Q04DX003 (ip), vehicle: saline
[12] = dose: 200.0 mg/kg/injection, schedule: Q04DX003 (ip), vehicle: saline
[13] = dose: 50.0 mg/kg/injection, schedule: Q01DX001 (ip), vehicle: saline
[14] = dose: 100.0 mg/kg/injection, schedule: Q04DX003 (ip), vehicle: Klucel (hydroxypropylcellulose) (HPC)
[15] = dose: 200.0 mg/kg/injection, schedule: Q04DX003 (ip), vehicle: Klucel (hydroxypropylcellulose) (HPC)
[16] = dose: 400.0 mg/kg/injection, schedule: Q04DX003 (ip), vehicle: Klucel (hydroxypropylcellulose) (HPC)

Measured: T/C

Cc1ccc(S(=O)(=O)N/N=C2/C3CC4C(C3)C24)cc1
inactive: [1] 90 % of control | [2] 88 % of control | dose: 200.0 mg/kg/injection, schedule: Q01DX009 (ip), vehicle: saline 92 % of control | dose: 400.0 mg/kg/injection, schedule: Q01DX001 (ip), vehicle: saline 103 % of control

CC(C)CCOc1ccc(N)c([N+](=O)[O-])c1
inactive: dose: 6.25 mg/kg/injection, schedule: Q01DX009 (ip), vehicle: saline with Tween-80 105 % of control | dose: 12.5 mg/kg/injection, schedule: Q01DX009 (ip), vehicle: saline with Tween-80 100 % of control | dose: 25.0 mg/kg/injection, schedule: Q01DX009 (ip), vehicle: saline with Tween-80 103 % of control | [3] 94 % of control | [4] 97 % of control | [5] 100 % of control

COc1ccc(C)cc1NC(=O)NNC(=O)c1ccc(Cl)cc1
inactive: [3] 98 % of control | [6] 98 % of control | [7] 98 % of control

NNC(=O)c1n[nH]c(C2OC(CO)C(O)C2O)c1N (stereo not drawn)
inactive: dose: 100.0 mg/kg/injection, schedule: Q01DX005 (ip), vehicle: saline 100 % of control | dose: 200.0 mg/kg/injection, schedule: Q01DX005 (ip), vehicle: saline 94 % of control

COc1ccc(OC(=O)Nc2ccc([N+](=O)[O-])cc2OC)cc1
inactive: [8] 96 % of control | [9] 95 % of control | [10] 101 % of control

CC1N(C)CCC1(C)CN1c2ccccc2Sc2ccccc21 (stereo not drawn)
inactive: [11] 108 % of control | [12] 102 % of control

C=C1C(=O)OC2/C=C(\C)CC/C=C(\C)CC(OC(C)=O)C12 (stereo not drawn)
inactive: [13] 96 % of control | [1] 96 % of control | [2] 107 % of control

CCCCC(NC(C)=O)C(=O)O (stereo not drawn)
inactive: [8] 96 % of control and 100 % of control | [14] 90 % of control | [9] 86 % of control and 97 % of control | [15] 97 % of control | [10] 88 % of control | [16] 90 % of control

Nc1nc(N)c2c(n1)Nc1ccc(Cl)nc1S2
inactive: dose: 75.0 mg/kg/injection, schedule: Q01DX009 (ip), vehicle: Klucel (hydroxypropylcellulose) (HPC) 93 % of control | dose: 150.0 mg/kg/injection, schedule: Q01DX009 (ip), vehicle: Klucel (hydroxypropylcellulose) (HPC) 95 % of control

Cc1ccc(OCCOc2ccc([N+](=O)[O-])cc2)cc1
inactive: [14] 96 % of control | [15] 93 % of control | [16] 91 % of control

FC(F)(F)C(F)(F)C1=NS1(F)C(F)(C(F)(F)F)C(F)(F)F (stereo not drawn)
inactive: dose: 100.0 mg/kg/injection, schedule: Q01DX001 (ip), vehicle: acetone 100 % of control | dose: 200.0 mg/kg/injection, schedule: Q01DX001 (ip), vehicle: acetone 97 % of control | dose: 400.0 mg/kg/injection, schedule: Q01DX001 (ip), vehicle: acetone 97 % of control

CC1(C)COc2cc([N+](=O)[O-])cc(N)c2N1
inactive: dose: 75.0 mg/kg/injection, schedule: Q01DX001 (ip), vehicle: saline 107 % of control | dose: 75.0 mg/kg/injection, schedule: Q04DX003 (ip), vehicle: acetone 110 % of control | dose: 150.0 mg/kg/injection, schedule: Q01DX001 (ip), vehicle: saline 100 % of control | dose: 150.0 mg/kg/injection, schedule: Q04DX003 (ip), vehicle: acetone 95 % of control | dose: 300.0 mg/kg/injection, schedule: Q01DX001 (ip), vehicle: saline 96 % of control | dose: 300.0 mg/kg/injection, schedule: Q04DX003 (ip), vehicle: acetone 101 % of control

O=C1NC(=O)C(c2ccc(Cl)cc2)(c2ccccc2Cl)N1 (stereo not drawn)
inactive: [14] 95 % of control | [15] 102 % of control | [16] 98 % of control

Cc1ccc(N)c(Br)c1
inactive: [3] 99 % of control | [6] 97 % of control

CCOC(=O)NP(=O)(NC1CCCCC1)NC1CCCCC1
inactive: dose: 50.0 mg/kg/injection, schedule: Q01DX001 (ip), vehicle: alcohol 92 % of control | dose: 100.0 mg/kg/injection, schedule: Q01DX001 (ip), vehicle: alcohol 96 % of control | dose: 200.0 mg/kg/injection, schedule: Q01DX001 (ip), vehicle: alcohol 90 % of control

COc1ccc(CCOC(C)=O)cc1OC
inactive: dose: 100.0 mg/kg/injection, schedule: Q04DX002 (ip), vehicle: Klucel (hydroxypropylcellulose) (HPC) 102 % of control | dose: 200.0 mg/kg/injection, schedule: Q04DX002 (ip), vehicle: Klucel (hydroxypropylcellulose) (HPC) 97 % of control | dose: 400.0 mg/kg/injection, schedule: Q04DX002 (ip), vehicle: Klucel (hydroxypropylcellulose) (HPC) 97 % of control

CC(=O)OCC1OC(n2cc(C)c(=O)[nH]c2=O)C(NC(=O)C(Cl)(Cl)Cl)C(OC(C)=O)C1OC(C)=O (stereo not drawn)
inactive: dose: 50.0 mg/kg/injection, schedule: Q01DX001 (ip), vehicle: carboxymethylcellulose (CMC) 105 % of control | dose: 100.0 mg/kg/injection, schedule: Q01DX001 (ip), vehicle: carboxymethylcellulose (CMC) 96 % of control | dose: 200.0 mg/kg/injection, schedule: Q01DX001 (ip), vehicle: carboxymethylcellulose (CMC) 100 % of control | dose: 400.0 mg/kg/injection, schedule: Q01DX001 (ip), vehicle: carboxymethylcellulose (CMC) 103 % of control

CCCCC[CH2][Sn]([I])([CH2]C)[CH2]C
inactive: dose: 1.56 mg/kg/injection, schedule: Q01DX009 (ip), vehicle: saline 95 % of control | dose: 3.13 mg/kg/injection, schedule: Q01DX009 (ip), vehicle: saline 90 % of control

COC(=O)c1ccc(OS(=O)(=O)c2cccc([N+](=O)[O-])c2)cc1
inactive: [8] 96 % of control | [14] 90 % of control | [9] 98 % of control | [15] 95 % of control | [10] 118 % of control | [16] 90 % of control

CN(N)c1ncnc2c1ncn2C1OC(CO)C(O)C1O (stereo not drawn)
inactive: [4] 114 % of control | [5] 106 % of control | dose: 400.0 mg/kg/injection, schedule: Q04DX003 (ip), vehicle: saline with Tween-80 95 % of control

Nc1ccc2cc(S(=O)(=O)O)cc(S(=O)(=O)O)c2c1 (tested in a mixture with another compound)
inactive: dose: 80.0 mg/kg/injection, schedule: Q01DX Z (ip), vehicle: saline 97 % of control | dose: 170.0 mg/kg/injection, schedule: Q01DX Z (ip), vehicle: saline 96 % of control

O=C(O)c1cccc(F)c1C(=O)c1ccc2ccccc2c1
inactive: dose: 75.0 mg/kg/injection, schedule: Q01DX001 (ip), vehicle: carboxymethylcellulose (CMC) 96 % of control | [14] 97 % of control | dose: 150.0 mg/kg/injection, schedule: Q01DX001 (ip), vehicle: carboxymethylcellulose (CMC) 95 % of control | [15] 105 % of control | dose: 300.0 mg/kg/injection, schedule: Q01DX001 (ip), vehicle: carboxymethylcellulose (CMC) 93 % of control

CCOC(=O)C1OC12c1cccc3cccc(c13)C21OC1C(=O)OCC (stereo not drawn)
inactive: [6] 92 % of control | [7] 90 % of control | dose: 400.0 mg/kg/injection, schedule: Q01DX009 (ip), vehicle: saline with Tween-80 98 % of control

CC(=O)N/C(N)=N/N=C(C)/C=N\N
inactive: dose: 15.0 mg/kg/injection, schedule: Q01DX Z (ip), vehicle: carboxymethylcellulose (CMC) 96 % of control | dose: 30.0 mg/kg/injection, schedule: Q01DX Z (ip), vehicle: carboxymethylcellulose (CMC) 96 % of control | dose: 60.0 mg/kg/injection, schedule: Q01DX Z (ip), vehicle: carboxymethylcellulose (CMC) 101 % of control | dose: 120.0 mg/kg/injection, schedule: Q01DX Z (ip), vehicle: carboxymethylcellulose (CMC) 101 % of control | dose: 120.0 mg/kg/injection, schedule: Q01DX Z (oral), vehicle: carboxymethylcellulose (CMC) 111 % of control

CCCCN(C)c1ncnc2[nH]ncc12
inactive: [13] 104 % of control | dose: 50.0 mg/kg/injection, schedule: Q01DX009 (ip), vehicle: saline 116 % of control | dose: 50.0 mg/kg/injection, schedule: Q04DX003 (ip), vehicle: saline 106 % of control | [1] 106 % of control | [11] 110 % of control | [2] 104 % of control | [12] 100 % of control

Cc1ccc(N2CCN(C(C)(C)C#N)CC2)cc1
inactive: [1] 102 % of control | [2] 98 % of control

— PubChem BioAssay AID248 (DTP/NCI, 2004)
